Measurements as given in patent US12427157B2, “Methods for treatment of diseases involving acidic or hypoxic diseased tissues” (Cybrexa 1, Inc., priority 2018, dated 2025).
Residues, ends and D or L forms follow the SMILES beside them. *: point of attachment. X8 = Cn1ncnc1[C@H]1c2n[nH]c(=O)c3cc(F)cc(c23)N(CNC(=O)OCC2(S*)CCC2)[C@@H]1c1ccc(F)cc1

What was measured:
PARP = PARP (Homo sapiens, UniProt P09874); assay: Enzymatic Assay 2: HT Universal Chemiluminescent PARP Assay of cleaved compounds; details: read-out: IC50 Enzymatic Assay 2; Examples cleaved per Example A (crude cleavage solution); R^8H starting materials as such;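 also: PARP reaction with activated DNA run 1 h at room temperature, product detected via streptavidin-HRP and luminescence endpoint reading on a plate reader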
DLD-1 BRCA2−/− cells = assay: Growth delay assay; format: cell-based, Human; details: pH 7.4, BRCA (−/−) DLD-1, 96 h
Protocol: Cells were plated in 96 well black walled-clear bottom plates (Griener), DLD-1 WT cells at 2500 cells per well, DLD-1 BRCA2−/− at 5000 cells per well, in growth media containing 10% FBS. Cells were allowed to adhere at room temperature for 60 minutes before returning to a 37 C, 5% CO2 incubator. After 24 hours, media was removed and replaced with fresh growth media containing various drug concentrations. Each drug concentration was added in triplicate. Non-drug treated controls contained growth media only. Cells were returned to the incubator. Ninety-six hours after addition of drug, cells were fixed with 4% paraformaldehyde for 20 minutes and stained with Hoechst at 1 ug/mL. The plates were imaged on a Cytation 5 auto imager (BioTek) and cells were counted using CellProfiler (http://cellprofiler.org). The percent cell growth delay was calculated and data plotted using GraphPad Prism.

PARP, sequence (P09874 whole entry): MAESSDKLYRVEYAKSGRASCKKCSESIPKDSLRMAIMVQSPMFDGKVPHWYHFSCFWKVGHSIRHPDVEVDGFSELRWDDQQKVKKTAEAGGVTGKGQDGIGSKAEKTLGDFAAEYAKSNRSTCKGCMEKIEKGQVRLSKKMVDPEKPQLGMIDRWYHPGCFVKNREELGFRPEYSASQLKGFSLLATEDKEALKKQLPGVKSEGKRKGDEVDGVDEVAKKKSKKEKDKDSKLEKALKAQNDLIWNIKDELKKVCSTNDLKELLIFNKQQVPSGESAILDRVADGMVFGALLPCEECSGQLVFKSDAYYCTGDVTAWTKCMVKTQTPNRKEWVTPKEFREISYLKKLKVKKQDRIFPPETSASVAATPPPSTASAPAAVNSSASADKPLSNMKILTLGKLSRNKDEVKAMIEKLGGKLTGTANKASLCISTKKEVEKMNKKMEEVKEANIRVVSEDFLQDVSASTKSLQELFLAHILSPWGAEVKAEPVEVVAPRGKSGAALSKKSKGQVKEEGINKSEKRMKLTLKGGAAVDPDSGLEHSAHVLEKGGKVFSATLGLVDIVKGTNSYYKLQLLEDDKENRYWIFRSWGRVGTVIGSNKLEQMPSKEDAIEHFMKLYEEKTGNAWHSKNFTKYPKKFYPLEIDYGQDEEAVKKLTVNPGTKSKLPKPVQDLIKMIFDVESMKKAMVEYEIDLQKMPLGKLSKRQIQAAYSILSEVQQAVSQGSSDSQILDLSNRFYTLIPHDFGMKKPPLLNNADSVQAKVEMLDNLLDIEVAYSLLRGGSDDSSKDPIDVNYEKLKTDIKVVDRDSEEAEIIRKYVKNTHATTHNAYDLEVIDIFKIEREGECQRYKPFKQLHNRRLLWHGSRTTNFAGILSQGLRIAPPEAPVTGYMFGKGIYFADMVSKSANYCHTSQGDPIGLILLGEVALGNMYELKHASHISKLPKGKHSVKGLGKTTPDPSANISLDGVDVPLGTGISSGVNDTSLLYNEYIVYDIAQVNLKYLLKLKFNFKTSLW

Compound | IC50 (PARP) [nM] | IC50 (DLD-1 BRCA2−/− cells) [nM]
CC(C)C[C@H](NC(=O)[C@H](Cc1ccc(O)cc1)NC(=O)[C@H](C)NC(=O)[C@H](CCCNC(=N)N)NC(=O)[C@H](Cc1c[nH]c2ccccc12)NC(=O)[C@@H]1CCCN1C(=O)[C@H](CC(N)=O)NC(=O)[C@H](CCC(N)=O)NC(=O)[C@H](CC(=O)O)NC(=O)[C@H](CC(=O)O)NC(=O)[C@H](C)N)C(=O)N[C@@H](CC(=O)O)C(=O)N[C@@H](CC(C)C)C(=O)N[C@@H](CC(C)C)C(=O)N[C@@H](Cc1ccccc1)C(=O)N1CCC[C@H]1C(=O)N[C@H](C(=O)N[C@@H](CC(=O)O)C(=O)N[C@H](C(=O)N[C@@H](CC(C)C)C(=O)N[C@@H](CC(C)C)C(=O)N[C@@H](CC(C)C)C(=O)N[C@@H](CC(=O)O)C(=O)N[C@@H](CC(C)C)C(=O)N[C@@H](CC(C)C)C(=O)N[C@@H](Cc1c[nH]c2ccccc12)C(=O)N[C@@H](CSSCCOC(=O)NCN1c2cc(F)cc3c(=O)[nH]nc(c23)[C@H](c2ncnn2C)[C@H]1c1ccc(F)cc1)C(=O)NCC(=O)O)[C@@H](C)O)[C@@H](C)O [Example 16] | 0.61 | 84
CC(C)C[C@H](NC(=O)[C@H](Cc1ccc(O)cc1)NC(=O)[C@H](C)NC(=O)[C@H](CCCNC(=N)N)NC(=O)[C@H](Cc1c[nH]c2ccccc12)NC(=O)[C@@H]1CCCN1C(=O)[C@H](CC(N)=O)NC(=O)[C@H](CCC(N)=O)NC(=O)[C@H](CC(=O)O)NC(=O)[C@H](CC(=O)O)NC(=O)[C@H](C)N)C(=O)N[C@@H](CC(=O)O)C(=O)N[C@@H](CC(C)C)C(=O)N[C@@H](CC(C)C)C(=O)N[C@@H](Cc1ccccc1)C(=O)N1CCC[C@H]1C(=O)N[C@H](C(=O)N[C@@H](CC(=O)O)C(=O)N[C@H](C(=O)N[C@@H](CC(C)C)C(=O)N[C@@H](CC(C)C)C(=O)N[C@@H](CC(C)C)C(=O)N[C@@H](CC(=O)O)C(=O)N[C@@H](CC(C)C)C(=O)N[C@@H](CC(C)C)C(=O)N[C@@H](Cc1c[nH]c2ccccc12)C(=O)N[C@@H](CC(=O)O)C(=O)N[C@@H](C)C(=O)N[C@@H](CC(=O)O)C(=O)N[C@@H](CCC(=O)O)C(=O)N[C@@H](CSSCCOC(=O)NCN1c2cc(F)cc3c(=O)[nH]nc(c23)[C@H](c2ncnn2C)[C@H]1c1ccc(F)cc1)C(=O)NCC(=O)O)[C@@H](C)O)[C@@H](C)O [Example 17] | 0.41 | 50
CC[C@H](C)[C@H](NC(=O)[C@@H]1CCCN1C(=O)[C@H](CC(N)=O)NC(=O)[C@H](CCC(N)=O)NC(=O)[C@H](CCC(=O)O)NC(=O)[C@H](C)N)C(=O)N[C@@H](Cc1ccc(O)cc1)C(=O)N[C@@H](Cc1c[nH]c2ccccc12)C(=O)N[C@@H](C)C(=O)N[C@@H](CCCNC(=N)N)C(=O)N[C@@H](Cc1ccc(O)cc1)C(=O)N[C@@H](C)C(=O)N[C@@H](CC(=O)O)C(=O)N[C@@H](Cc1c[nH]c2ccccc12)C(=O)N[C@@H](CC(C)C)C(=O)N[C@@H](Cc1ccccc1)C(=O)N[C@H](C(=O)N[C@H](C(=O)N1CCC[C@H]1C(=O)N[C@@H](CC(C)C)C(=O)N[C@@H](CC(C)C)C(=O)N[C@@H](CC(C)C)C(=O)N[C@@H](CC(C)C)C(=O)N[C@@H](CC(=O)O)C(=O)N[C@@H](CC(C)C)C(=O)N[C@@H](C)C(=O)N[C@@H](CC(C)C)C(=O)N[C@@H](CC(C)C)C(=O)N[C@H](C(=O)N[C@@H](CC(=O)O)C(=O)N[C@@H](C)C(=O)N[C@@H](CC(=O)O)C(=O)N[C@@H](CCC(=O)O)C(=O)N[C@@H](CSSC1(COC(=O)NCN2c3cc(F)cc4c(=O)[nH]nc(c34)[C@H](c3ncnn3C)[C@H]2c2ccc(F)cc2)CCC1)C(=O)NCC(=O)O)C(C)C)[C@@H](C)O)[C@@H](C)O [Example 39] (H-AEQNPIYWARYADWLFTTPLLLLDLALLVDADEC(X8)G-OH; N-terminus and C-terminus assumed) | 3 | 104
